From patent US7966056B2, “Magnetic resonance imaging method and compounds for use in the method” (GE Healthcare AS, priority 2002, dated 2011)
One block for each compound: values may come before it.

Columns and labels:
mice = conditions: intravenous injection in mice; cited from earlier work
anaesthetised dogs = test: cardiovascular effects in anaesthetised dogs with and without dobutamine stress (Example 7); type: in vivo; conditions: dobutamine alone, 5-20 μg/kg/min infusion
Procedure: The cardiovascular effects of MnHPTA with various amounts of Ca^2+ (0, 0.5 and 1 mol Ca^2+ per mol Mn^2+) were investigated in the presence and absence of dobutamine induced pharmacological stress in anaesthetised dogs.
Anaesthesia was induced with pentobarbital (12-25 mg/kg i.v.) and fentanyl (1.5-2.5 μg/kg i.v.), followed by a continuous i.v. infusion of fentanyl (20 μg/kg/h and pentobarbital (10 mg/kg/h). Artificial ventilation was carried out by room air through a tracheal tube, aimed at achieving normal physiological blood gas values. A catheter was introduced through the right femoral artery for measurement of SAP. A microtip pressure transducer catheter (Millar) was placed into the left ventricle through the carotid artery for measurements of LVdP/dt. A Swan-Ganz catheter was introduced through the right femoral vein for measuring PAP (pulmonary arterial pressure). A 3-lead ECG was continuously-monitored. An ultrasonic flow probe was placed around the left femoral artery for flow measurement. Venflon cannulas were introduced into the left and right jugular veins for contrast agent injections and dobutamine infusions, respectively. […]
Systolic, diastolic and mean systemic arterial pressure (SYS, DIA MEAN), LVdP/dt, femoral arterial flow, mean PAP (pulmonary arterial pressure), HR (heart rate) and ECG were continuously monitored and stored by a computer system.

[1] = maximum solubility in water; type: physicochemical
Excerpt: In the method according to the invention the contrast agent is preferably administered in a bolus injection although slow injection or infusion of the contrast agent is also suitable. For Mn^2+ complexes with low formation constants, e.g. in the area 10^3 to 10^8 there might be a risk that the release of Mn^2+ from the complex may still be sufficiently rapid to induce cardiotoxic reactions in the body. To avoid such toxic reactions, the contrast agent comprising such complexes could be provided in solutions comprising low concentrations of such complexes. If it is preferred to provide the contrast agent in dry form, e.g. as a lyophilized powder, for on site preparation of the solution for injection, complexes with properties that avoid the preparation of high concentration solutions provide an additional advantage. For example the sodium salt of MnTPP, Na3MP3O10, has a limited solubility, thus prohibiting injections of highly concentrated solutions of manganese. […] This injection volume additionally prohibits rapid bolus injections of sodium salts of MnTPP.

Procedure for myocardium: In an anaesthesed pig, heart rate and systolic/diastolic blood pressure were monitored.
Dobutamine was infused at a dose of 10 μg/kg body weight/min and increased by 10 μg/kg/min every second minute until a PRP (pressure-rate product) of a factor 2.5 was achieved.
10 μmol/kg body weight of MnTPP was injected in a bolus during 4 seconds.
The pig was subjected to imaging at 1.5 T in a clinical scanner. Short axis view images of the myocardium were acquired 45 minutes post injection.

Compound: [Ba+2].[Cl-].[Cl-] [BaCl2]
LD50 (mice): 19.2 mg/kg

Compound: [Ca+2].[Cl-].[Cl-] [CaCl2]
LD50 (mice): 42.2 mg/kg

Compound: CC(CCc1ccc(O)cc1)NCCc1ccc(O)c(O)c1 (stereo not drawn) [Dobutamine, dobutamine]
increase in dP/dt max (anaesthetised dogs): 4 times

maximum solubility in water [1]: 23 mM
Compound: O=P([O-])([O-])OP(=O)([O-])OP(=O)([O-])[O-].[Mn+2].[Na+].[Na+].[Na+] [sodium salt of MnTPP]

Compound: manganese triphosphate [MnTPP]
clinical signs represented by changes in physiological parameters (myocardium; 10 μmol/kg body weight bolus during 4 seconds, dobutamine stress, anaesthetised pig): No clinical signs represented by changes in physiological parameters were observed
short axis view MR images of the myocardium (myocardium; 10 μmol/kg, 1.5 T, 45 minutes post injection, pig): visualised an underperfused area
